Source: PubChem BioAssay AID2060884 (Molecular Pharmacology Branch, DTP, NCI, 2025)

Tested on: NCI-H929 complex spheroids, viability % test/control
Experiment: Anticancer human tumor NCI-H929 cell line growth inhibition [RAS];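 also: compound exposure lasted seven days before viability was read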;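 as to viability, T/C: 100% = DMSO vehicle control viability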
Details: for IC50: curve of first compound; for viability, T/C: stronger effect = lower value
How it was run: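 Agents were tested in combination matrices in half-log decrements from a top concentration at or near clinical Cmax (10 microM if undetermined). Targets were multi-cell spheroids of tumour lines plus HUVEC and MSC stromal cells.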

[1] = second compound 0.000949 µM, first compound 0.0316 µM
[2] = second compound 0.000949 µM, first compound 0.1 µM
[3] = second compound 0.000949 µM, first compound 0.316 µM
[4] = second compound 0.000949 µM, first compound 1 µM
[5] = second compound 0.000949 µM, first compound 3.16 µM
[6] = second compound 0.000949 µM, first compound 10 µM
[7] = second compound 0.003 µM, first compound 0.0316 µM
[8] = second compound 0.003 µM, first compound 0.1 µM
[9] = second compound 0.003 µM, first compound 0.316 µM
[10] = second compound 0.003 µM, first compound 1 µM
[11] = second compound 0.003 µM, first compound 3.16 µM
[12] = second compound 0.003 µM, first compound 10 µM
[13] = second compound 0.00949 µM, first compound 0.0316 µM
[14] = second compound 0.00949 µM, first compound 0.1 µM
[15] = second compound 0.00949 µM, first compound 0.316 µM
[16] = second compound 0.00949 µM, first compound 1 µM
[17] = second compound 0.00949 µM, first compound 3.16 µM
[18] = second compound 0.00949 µM, first compound 10 µM
[19] = second compound 0.03 µM, first compound 0.0316 µM
[20] = second compound 0.03 µM, first compound 0.1 µM
[21] = second compound 0.03 µM, first compound 0.316 µM
[22] = second compound 0.03 µM, first compound 1 µM
[23] = second compound 0.03 µM, first compound 3.16 µM
[24] = second compound 0.03 µM, first compound 10 µM
[25] = second compound 0.0949 µM, first compound 0.0316 µM
[26] = second compound 0.0949 µM, first compound 0.1 µM
[27] = second compound 0.0949 µM, first compound 0.316 µM
[28] = second compound 0.0949 µM, first compound 1 µM
[29] = second compound 0.0949 µM, first compound 3.16 µM
[30] = second compound 0.0949 µM, first compound 10 µM
[31] = second compound 0.3 µM, first compound 0.0316 µM
[32] = second compound 0.3 µM, first compound 0.1 µM
[33] = second compound 0.3 µM, first compound 0.316 µM
[34] = second compound 0.3 µM, first compound 1 µM
[35] = second compound 0.3 µM, first compound 3.16 µM
[36] = second compound 0.3 µM, first compound 10 µM

CC1(O)CCCC1n1c(=O)c(C(F)F)cc2cnc(NC3CCN(S(C)(=O)=O)CC3)nc21 (stereo unspecified) + CCn1c(-c2cccnc2C(C)OC)c2c3cc(ccc31)N1CCOC(CC(NC(=O)C(C(C)C)N(C)C(=O)C3(F)CCN(C(=O)C#CC(C)(C)N(C)C)CC3)C(=O)N3CCCC(N3)C(=O)OCC(C)(C)C2)C1
IC50 (second compound 0.000949 µM): 75.4 nM | IC50 (second compound 0.003 µM): 76.5 nM | IC50 (second compound 0.00949 µM): 74.3 nM | IC50 (second compound 0.03 µM): 71 nM | IC50 (second compound 0.0949 µM): 67.7 nM | IC50 (second compound 0.3 µM): 62.4 nM | viability, T/C [1]: 104% | viability, T/C [2]: 32.6% | viability, T/C [3]: 1.35% | viability, T/C [4]: 2.44% | viability, T/C [5]: 1.45% | viability, T/C [6]: 0.12% | viability, T/C [7]: 100% | viability, T/C [8]: 34.8% | viability, T/C [9]: 1.28% | viability, T/C [10]: 2.8% | viability, T/C [11]: 1.23% | viability, T/C [12]: 0.1% | viability, T/C [13]: 98.1% | viability, T/C [14]: 33.3% | viability, T/C [15]: 0.97% | viability, T/C [16]: 2.52% | viability, T/C [17]: 1.36% | viability, T/C [18]: 0.09% | viability, T/C [19]: 99.8% | viability, T/C [20]: 28.9% | viability, T/C [21]: 1.21% | viability, T/C [22]: 2.78% | viability, T/C [23]: 1.08% | viability, T/C [24]: 0.11% | viability, T/C [25]: 99.9% | viability, T/C [26]: 24.5% | viability, T/C [27]: 1.16% | viability, T/C [28]: 2.55% | viability, T/C [29]: 1.28% | viability, T/C [30]: 0.12% | viability, T/C [31]: 103% | viability, T/C [32]: 13.5% | viability, T/C [33]: 1.13% | viability, T/C [34]: 2.31% | viability, T/C [35]: 1.74% | viability, T/C [36]: 0.16%

CCC(CC)c1cc(NC2CCC(N)C2)n2nccc2n1 (stereo unspecified) + CCn1c(-c2cccnc2C(C)OC)c2c3cc(ccc31)N1CCOC(CC(NC(=O)C(C(C)C)N(C)C(=O)C3(F)CCN(C(=O)C#CC(C)(C)N(C)C)CC3)C(=O)N3CCCC(N3)C(=O)OCC(C)(C)C2)C1
IC50 (second compound 0.000949 µM): 1540 nM | IC50 (second compound 0.003 µM): 1570 nM | IC50 (second compound 0.00949 µM): 1540 nM | IC50 (second compound 0.03 µM): 1340 nM | IC50 (second compound 0.0949 µM): 1400 nM | IC50 (second compound 0.3 µM): 1110 nM | viability, T/C [1]: 102% | viability, T/C [2]: 92.6% | viability, T/C [3]: 92.5% | viability, T/C [4]: 79.5% | viability, T/C [5]: 0.2% | viability, T/C [6]: 0.2% | viability, T/C [7]: 100% | viability, T/C [8]: 98.8% | viability, T/C [9]: 93.5% | viability, T/C [10]: 82.1% | viability, T/C [11]: 0.2% | viability, T/C [12]: 0.19% | viability, T/C [13]: 102% | viability, T/C [14]: 96.5% | viability, T/C [15]: 92.5% | viability, T/C [16]: 80.1% | viability, T/C [17]: 0.2% | viability, T/C [18]: 0.18% | viability, T/C [19]: 97.3% | viability, T/C [20]: 93.8% | viability, T/C [21]: 93.5% | viability, T/C [22]: 67% | viability, T/C [23]: 0.19% | viability, T/C [24]: 0.2% | viability, T/C [25]: 98.1% | viability, T/C [26]: 96.4% | viability, T/C [27]: 89.2% | viability, T/C [28]: 70.4% | viability, T/C [29]: 0.22% | viability, T/C [30]: 0.22% | viability, T/C [31]: 102% | viability, T/C [32]: 96.7% | viability, T/C [33]: 94.3% | viability, T/C [34]: 55.1% | viability, T/C [35]: 0.25% | viability, T/C [36]: 0.22%

Cc1nc(N2CCC3(CC2)COC(C)C3N)c(CO)nc1Sc1ccnc(N)c1Cl (stereo unspecified) + CCn1c(-c2cccnc2C(C)OC)c2c3cc(ccc31)N1CCOC(CC(NC(=O)C(C(C)C)N(C)C(=O)C3(F)CCN(C(=O)C#CC(C)(C)N(C)C)CC3)C(=O)N3CCCC(N3)C(=O)OCC(C)(C)C2)C1
IC50 (second compound 0.000949 µM): > 10000 nM | IC50 (second compound 0.003 µM): > 10000 nM | IC50 (second compound 0.00949 µM): > 10000 nM | IC50 (second compound 0.03 µM): > 10000 nM | IC50 (second compound 0.0949 µM): > 10000 nM | IC50 (second compound 0.3 µM): > 10000 nM | viability, T/C [1]: 108% | viability, T/C [2]: 99.1% | viability, T/C [3]: 102% | viability, T/C [4]: 102% | viability, T/C [5]: 102% | viability, T/C [6]: 97.8% | viability, T/C [7]: 103% | viability, T/C [8]: 105% | viability, T/C [9]: 102% | viability, T/C [10]: 101% | viability, T/C [11]: 103% | viability, T/C [12]: 99.5% | viability, T/C [13]: 102% | viability, T/C [14]: 101% | viability, T/C [15]: 108% | viability, T/C [16]: 100% | viability, T/C [17]: 104% | viability, T/C [18]: 102% | viability, T/C [19]: 99.4% | viability, T/C [20]: 103% | viability, T/C [21]: 103% | viability, T/C [22]: 99.8% | viability, T/C [23]: 106% | viability, T/C [24]: 104% | viability, T/C [25]: 104% | viability, T/C [26]: 97.1% | viability, T/C [27]: 98.2% | viability, T/C [28]: 101% | viability, T/C [29]: 98.2% | viability, T/C [30]: 95.7% | viability, T/C [31]: 102% | viability, T/C [32]: 103% | viability, T/C [33]: 101% | viability, T/C [34]: 99.7% | viability, T/C [35]: 98.2% | viability, T/C [36]: 95.5%
